Patent US9302999B2, “Substituted triazoles as herbicides” (E. I. DU PONT DE NEMOURS AND COMPANY, priority 2012, dated 2016)

Experiments:
Type in all cases: in vivo
[1] = system: crabgrass, large (large crabgrass, Digitaria sanguinalis); assay: Test A pre-/postemergence: crabgrass, large
Method in brief: (§1)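 Rating scale 0–100 (100 = complete control), visual, ~10 days after application in the greenhouse. Applications: preemergence directed soil spray; postemergence at 1–2 leaves.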

[2] = system: sedge, umbrella (small-flower umbrella sedge, Cyperus difformis); assay: Test C flooded paddy test: sedge, umbrella; details: scale 0 to 100 (0 no effect, 100 complete control)
Method in brief: (§2)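 Greenhouse plants treated at the 2-leaf stage by dosing the flood water (3 cm depth, maintained) were compared with controls after 13 to 15 days and rated 0 to 100, where 100 means complete control; a dash marks no test result.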

rice (Oryza sativa) = assay: Test C flooded paddy test: rice; details: scale 0 to 100 (0 no effect, 100 complete control)
Method in brief: as §2

[3] = system: barnyardgrass (Echinochloa crus-galli); assay: Test A pre-/postemergence: barnyardgrass
Method in brief: as §1

[4] = system: barnyardgrass (Echinochloa crus-galli); assay: Test C flooded paddy test: barnyardgrass; details: scale 0 to 100 (0 no effect, 100 complete control)
Method in brief: as §2

[5] = system: morningglory (Ipomoea spp.); assay: Test A pre-/postemergence: morningglory
Method in brief: as §1

[6] = system: wheat (Triticum aestivum); assay: Test A pre-/postemergence: wheat
Method in brief: as §1

corn (Zea mays) = assay: Test A pre-/postemergence: corn
Method in brief: as §1

[7] = system: velvetleaf (Abutilon theophrasti); assay: Test A pre-/postemergence: velvetleaf
Method in brief: as §1

[8] = system: ducksalad (Heteranthera limosa); assay: Test C flooded paddy test: ducksalad; details: scale 0 to 100 (0 no effect, 100 complete control)
Method in brief: as §2

[9] = system: pigweed (Amaranthus retroflexus); assay: Test A pre-/postemergence: pigweed
Method in brief: as §1

[10] = system: foxtail, giant (giant foxtail, Setaria faberii); assay: Test A pre-/postemergence: foxtail, giant
Method in brief: as §1

[11] = Postemergence, 1000 g ai/ha, visual rating on 0 to 100 scale (0 no effect, 100 complete control), approximately ten days
[12] = Preemergence, 1000 g ai/ha, 0 to 100 scale, 0 is no effect, 100 is complete control
[13] = Flood (flooded paddy test), 250 g ai/ha, visual rating after 13 to 15 days
[14] = Postemergence, 125 g ai/ha, 0 to 100 scale, 0 is no effect, 100 is complete control
[15] = Postemergence, 500 g ai/ha, visual rating on 0 to 100 scale (0 no effect, 100 complete control), approximately ten days
[16] = Preemergence, 125 g ai/ha, 0 to 100 scale (0 no effect, 100 complete control)
[17] = Preemergence, 500 g ai/ha, 0 to 100 scale, 0 is no effect, 100 is complete control
[18] = Flood (flooded paddy test), 125 g ai/ha, visual rating after 13 to 15 days
[19] = Preemergence, 125 g ai/ha, 0 to 100 scale where 0 is no effect and 100 is complete control

Cc1nn(-c2ccc(F)cc2)nc1Cn1ccc(C(F)(F)F)n1 [Compound 95]
Crabgrass, Large plant response rating [1, 11]: 80 | Crabgrass, Large plant response rating [1, 12]: 100 | Plant response rating, Sedge, Umbrella [2, 13]: 0 | Plant response rating, Sedge, Umbrella ([2]; Flood, 62 g ai/ha): 0 | Plant response rating, Rice (rice (Oryza sativa); [13]): 0 | Plant response rating, Rice (rice (Oryza sativa); Flood, 62 g ai/ha): 0 | Barnyardgrass plant response rating [3, 11]: 60 | Barnyardgrass plant response rating [3, 12]: 50 | Plant response rating, Barnyardgrass [4, 13]: 0 | Plant response rating, Barnyardgrass ([4]; Flood, 62 g ai/ha): 0 | Morningglory plant response rating [5, 11]: 60 | Morningglory plant response rating [5, 12]: 0 | Wheat plant response rating [6, 11]: 0 | Wheat plant response rating [6, 12]: 0 | Corn plant response rating (corn (Zea mays); [11]): 30 | Corn plant response rating (corn (Zea mays); [12]): 10 | Velvetleaf plant response rating [7, 11]: 70 | Velvetleaf plant response rating [7, 12]: 40 | Plant response rating, Ducksalad [8, 13]: 0 | Plant response rating, Ducksalad ([8]; Flood, 62 g ai/ha): 0 | Pigweed plant response rating [9, 11]: 100 | Pigweed plant response rating [9, 12]: 90 | Foxtail, Giant plant response rating [10, 11]: 60 | Foxtail, Giant plant response rating [10, 12]: 100

Cc1nn(-c2ccc(C(F)(F)F)cc2)nc1Cn1cnc(C(F)(F)F)c1 [Compound 96]
Crabgrass, Large plant response rating [1, 11]: 70 | Crabgrass, Large plant response rating [1, 12]: 100 | Plant response rating, Sedge, Umbrella [2, 13]: 80 | Plant response rating, Sedge, Umbrella ([2]; Flood, 62 g ai/ha): 75 | Plant response rating, Rice (rice (Oryza sativa); [13]): 0 | Plant response rating, Rice (rice (Oryza sativa); Flood, 62 g ai/ha): 0 | Barnyardgrass plant response rating [3, 11]: 40 | Barnyardgrass plant response rating [3, 12]: 70 | Plant response rating, Barnyardgrass [4, 13]: 10 | Plant response rating, Barnyardgrass ([4]; Flood, 62 g ai/ha): 10 | Morningglory plant response rating [5, 11]: 80 | Morningglory plant response rating [5, 12]: 40 | Wheat plant response rating [6, 11]: 30 | Wheat plant response rating [6, 12]: 0 | Corn plant response rating (corn (Zea mays); [11]): 30 | Corn plant response rating (corn (Zea mays); [12]): 0 | Velvetleaf plant response rating [7, 11]: 70 | Velvetleaf plant response rating [7, 12]: 0 | Plant response rating, Ducksalad [8, 13]: 50 | Plant response rating, Ducksalad ([8]; Flood, 62 g ai/ha): 40 | Pigweed plant response rating [9, 11]: 90 | Pigweed plant response rating [9, 12]: 100 | Foxtail, Giant plant response rating [10, 11]: 60 | Foxtail, Giant plant response rating [10, 12]: 90

Cc1nn(-c2ccc(F)cc2)nc1Oc1cccc(C(F)(F)F)c1 [Compound 98]
Crabgrass, Large plant response rating [1, 14]: 90 | Crabgrass, Large plant response rating [1, 15]: 90 | Plant response rating, Crabgrass, Large [1, 16]: 80 | Plant response rating, Crabgrass, Large [1, 17]: 100 | Plant response rating, Sedge, Umbrella [2, 18]: 40 | Plant response rating, Sedge, Umbrella [2, 13]: 80 | Plant response rating, Sedge, Umbrella ([2]; Flood, 31 g ai/ha): 0 | Plant response rating, Sedge, Umbrella ([2]; Flood, 62 g ai/ha): 0 | Plant response rating, Rice (rice (Oryza sativa); [18]): 30 | Plant response rating, Rice (rice (Oryza sativa); [13]): 40 | Plant response rating, Rice (rice (Oryza sativa); Flood, 31 g ai/ha): 0 | Plant response rating, Rice (rice (Oryza sativa); Flood, 62 g ai/ha): 0 | Barnyardgrass plant response rating [3, 14]: 30 | Barnyardgrass plant response rating [3, 15]: 80 | Plant response rating, Barnyardgrass [3, 16]: 10 | Plant response rating, Barnyardgrass [3, 17]: 60 | Plant response rating, Barnyardgrass [4, 18]: 30 | Plant response rating, Barnyardgrass [4, 13]: 70 | Plant response rating, Barnyardgrass ([4]; Flood, 31 g ai/ha): 0 | Plant response rating, Barnyardgrass ([4]; Flood, 62 g ai/ha): 0 | Morningglory plant response rating [5, 14]: 80 | Morningglory plant response rating [5, 15]: 100 | Plant response rating, Morningglory [5, 19]: 0 | Plant response rating, Morningglory [5, 17]: 10 | Wheat plant response rating [6, 14]: 10 | Wheat plant response rating [6, 15]: 30 | Plant response rating, Wheat [6, 19]: 0 | Plant response rating, Wheat [6, 17]: 20 | Corn plant response rating (corn (Zea mays); [14]): 20 | Corn plant response rating (corn (Zea mays); [15]): 30 | Plant response rating, Corn (corn (Zea mays); [16]): 0 | Plant response rating, Corn (corn (Zea mays); [17]): 10 | Velvetleaf plant response rating [7, 14]: 60 | Velvetleaf plant response rating [7, 15]: 80 | Plant response rating, Velvetleaf [7, 19]: 0 | Plant response rating, Velvetleaf [7, 17]: 50 | Plant response rating, Ducksalad [8, 18]: 30 | Plant response rating, Ducksalad [8, 13]: 70 | Plant response rating, Ducksalad ([8]; Flood, 31 g ai/ha): 0 | Plant response rating, Ducksalad ([8]; Flood, 62 g ai/ha): 0 | Pigweed plant response rating [9, 14]: 100 | Pigweed plant response rating [9, 15]: 100 | Plant response rating, Pigweed [9, 19]: 60 | Plant response rating, Pigweed [9, 17]: 100 | Foxtail, Giant plant response rating [10, 14]: 80 | Foxtail, Giant plant response rating [10, 15]: 90 | Plant response rating, Foxtail, Giant [10, 19]: 70 | Plant response rating, Foxtail, Giant [10, 17]: 100

Cc1nn(-c2ccc(F)cc2)nc1Oc1ccnc(C(F)(F)F)n1 [Compound 101]
Crabgrass, Large plant response rating [1, 14]: 70 | Crabgrass, Large plant response rating [1, 15]: 90 | Plant response rating, Crabgrass, Large [1, 16]: 100 | Plant response rating, Crabgrass, Large [1, 17]: 100 | Plant response rating, Sedge, Umbrella [2, 18]: 50 | Plant response rating, Sedge, Umbrella [2, 13]: 75 | Plant response rating, Sedge, Umbrella ([2]; Flood, 31 g ai/ha): 0 | Plant response rating, Sedge, Umbrella ([2]; Flood, 62 g ai/ha): 0 | Plant response rating, Rice (rice (Oryza sativa); [18]): 15 | Plant response rating, Rice (rice (Oryza sativa); [13]): 20 | Plant response rating, Rice (rice (Oryza sativa); Flood, 31 g ai/ha): 0 | Plant response rating, Rice (rice (Oryza sativa); Flood, 62 g ai/ha): 0 | Barnyardgrass plant response rating [3, 14]: 20 | Barnyardgrass plant response rating [3, 15]: 60 | Plant response rating, Barnyardgrass [3, 16]: 50 | Plant response rating, Barnyardgrass [3, 17]: 80 | Plant response rating, Barnyardgrass [4, 18]: 55 | Plant response rating, Barnyardgrass [4, 13]: 60 | Plant response rating, Barnyardgrass ([4]; Flood, 31 g ai/ha): 0 | Plant response rating, Barnyardgrass ([4]; Flood, 62 g ai/ha): 0 | Morningglory plant response rating [5, 14]: 40 | Morningglory plant response rating [5, 15]: 40 | Plant response rating, Morningglory [5, 19]: 0 | Plant response rating, Morningglory [5, 17]: 10 | Wheat plant response rating [6, 14]: 0 | Wheat plant response rating [6, 15]: 10 | Plant response rating, Wheat [6, 19]: 0 | Plant response rating, Wheat [6, 17]: 0 | Corn plant response rating (corn (Zea mays); [14]): 10 | Corn plant response rating (corn (Zea mays); [15]): 20 | Plant response rating, Corn (corn (Zea mays); [16]): 0 | Plant response rating, Corn (corn (Zea mays); [17]): 10 | Velvetleaf plant response rating [7, 14]: 10 | Velvetleaf plant response rating [7, 15]: 20 | Plant response rating, Velvetleaf [7, 19]: 0 | Plant response rating, Velvetleaf [7, 17]: 0 | Plant response rating, Ducksalad [8, 18]: 50 | Plant response rating, Ducksalad [8, 13]: 65 | Plant response rating, Ducksalad ([8]; Flood, 31 g ai/ha): 0 | Plant response rating, Ducksalad ([8]; Flood, 62 g ai/ha): 20 | Pigweed plant response rating [9, 14]: 80 | Pigweed plant response rating [9, 15]: 90 | Plant response rating, Pigweed [9, 19]: 100 | Plant response rating, Pigweed [9, 17]: 100 | Foxtail, Giant plant response rating [10, 14]: 70 | Foxtail, Giant plant response rating [10, 15]: 90 | Plant response rating, Foxtail, Giant [10, 19]: 100 | Plant response rating, Foxtail, Giant [10, 17]: 100
